Measurements: patent publication US8575146B2, “Pharmaceutical uses of staurosporine derivatives” (Novartis AG, priority 2003, dated 2013)

What was measured:
[1] = molecular target: T1, constitutively activated mutant canine KIT in BR and C2 cells (Canis lupus familiaris, UniProt O97799, L579P); assay: KIT autophosphorylation in BR and C2 canine mastocytoma cell lysates (anti-P-Tyr Western immunoblot); assay type: cell-based
T1 construct: Lysates prepared from BR or C2 cells are probed with an anti-P-Tyr antibody; endogenous in cells; host or cells: BR canine mastocytoma cell line
Excerpt: (§1) The C2 cell line has an internal tandem duplication (ITD) of the KIT juxtamembrane region.

[2] = test system: systemic mastocytosis with D816V KIT mutation; assay: Case of a patient with systemic mastocytosis / mast cell leukemia treated with PKC412; assay type: in vivo, human
Excerpt: They were supported with red blood cell and platelet transfusions, antihistamine blockade, and cromolyn sodium.

[3] = test system: BR and C2 canine mastocytoma cells; assay: XTT-based proliferation assay of canine mast cell tumor cell lines; conditions: 0.1-10 μM; 48-72 hours; BR or C2 cells
Excerpt: as §1

T1 sequence (O97799 28-979 L579P): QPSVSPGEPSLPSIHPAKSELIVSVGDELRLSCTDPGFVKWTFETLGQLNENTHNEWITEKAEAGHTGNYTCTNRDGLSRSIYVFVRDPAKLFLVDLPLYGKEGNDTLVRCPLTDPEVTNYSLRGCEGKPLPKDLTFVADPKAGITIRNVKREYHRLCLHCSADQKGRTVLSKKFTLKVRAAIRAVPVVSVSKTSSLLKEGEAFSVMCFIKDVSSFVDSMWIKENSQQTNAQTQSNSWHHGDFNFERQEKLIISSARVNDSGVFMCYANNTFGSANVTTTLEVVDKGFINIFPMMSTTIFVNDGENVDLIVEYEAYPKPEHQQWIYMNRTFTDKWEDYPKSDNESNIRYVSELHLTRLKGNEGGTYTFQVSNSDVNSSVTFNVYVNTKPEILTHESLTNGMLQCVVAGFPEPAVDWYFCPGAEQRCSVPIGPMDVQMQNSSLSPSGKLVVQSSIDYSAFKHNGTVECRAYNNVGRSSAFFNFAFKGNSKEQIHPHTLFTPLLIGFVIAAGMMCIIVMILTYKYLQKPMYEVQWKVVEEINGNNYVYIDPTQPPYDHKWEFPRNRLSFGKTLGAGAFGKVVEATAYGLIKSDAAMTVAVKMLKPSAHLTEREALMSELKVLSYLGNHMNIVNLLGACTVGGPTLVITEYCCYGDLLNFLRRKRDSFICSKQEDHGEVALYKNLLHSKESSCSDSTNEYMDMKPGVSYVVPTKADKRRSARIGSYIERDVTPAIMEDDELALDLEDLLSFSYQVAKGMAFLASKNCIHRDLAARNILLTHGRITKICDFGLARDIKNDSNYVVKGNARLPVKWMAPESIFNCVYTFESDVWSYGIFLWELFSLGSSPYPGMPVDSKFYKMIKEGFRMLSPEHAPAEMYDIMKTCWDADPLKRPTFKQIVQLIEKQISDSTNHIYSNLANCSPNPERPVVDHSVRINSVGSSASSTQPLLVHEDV

With `CO[C@@H]1[C@H](N(C)C(=O)c2ccccc2)C[C@H]2O[C@]1(C)n1c3ccccc3c3c4c(c5c6ccccc6n2c5c31)C(=O)NC4` [PKC412, N-[(9S, 10R,11R,13R)-2,3,10,11,12,13-hexahydro-10-methoxy-9-methyl-1-oxo-9,13-epoxy-1H,9H-diindolo[1,2,3-gh:3′,2′,1′-lm]pyrrolo[3,4j][1,7]benzodiazonin-11-yl]-N-methylbenzamide] the “Inhibition of KIT autophosphorylation” value ([1]; 0.1 μM dose, BR or C2 cells, 90 minutes) was “Near complete inhibition”, the autophosphorylation of c-kit ([1]; 0.001-0.01 μM doses, BR or C2 cells, 90 minutes) was “Limited autophosphorylation” and the “Inhibition of KIT autophosphorylation” value ([1]; 10 and 1.0 μM doses, BR or C2 cells, 90 minutes) was “complete inhibition”. The “expression of c-kit protein (membrane reprobed with anti-c-kit antibody)” value ([1]; PKC412 treated BR or C2 cells) was “no change”, the “tolerability / adverse events” value ([2]; 100 mg twice daily orally, later 75 mg po tid) was “well tolerated without any significant adverse events” and the “day on which patient expired” value ([2]; PKC412 stopped on day #102) was 111 days. For the same compound, the serum histamine level ([2]; after 1 month (about day 32)) was 1031 ng/dL, the “Transient platelet-transfusion independence, duration” value ([2]; cycle 2) was 2-3 weeks and the platelets ([2]; cycle 2, during transient platelet-transfusion independence) was 20,000-25,000 /mm3. For the same compound, the Serum histamine ([2]; cycle 3) was 2525 ng/dL, the “bilirubin (total)” value ([2]; cycle 3, when PKC412 stopped on day #102) was 14 mg/dL and the circulating mast cells ([2]; day 32 of treatment) was < 5%. For the same compound, the “white blood cell count” value ([2]; day 32 of treatment) was “normal”, the “Bone marrow clusters of mast cells by IPOX” value ([2]; end of cycle 1) was “no changes” and the Bone marrow blasts ([2]; end of cycle 1 / after 1 month, 5-10% at presentation) was < 5%. For the same compound, the Karnofsky performance status ([2]; end of cycle 1 / after 1 month, from 20% before therapy) was 70%, the “Response (criteria of Valent et al)” value ([2]; end of cycle 1, 100 mg twice daily orally, 28-day cycles) was “Partial Response” and the direct bilirubin ([2]; end of cycle 1, from 2.8) was 1.1 mg/dL. The total bilirubin ([2]; end of cycle 1, from 4.8) was 2.1 mg/dL, the “Peripheral blood mast cell numbers” value ([2]; end of cycle 1, from 40-50%) was < 10% and the LDH ([2]; end of cycle 1, from 769) was 239 IU/L. The Serum histamine ([2]; end of cycle 1, from 7000, normal <100) was 1000 ng/dL, the Bone marrow blasts ([2]; end of cycle 2) was 10-15% and the “Bone marrow mast cell clusters” value ([2]; end of cycle 2) was “no significant change”. For the same compound, the “Peripheral blood mast cell numbers” value ([2]; end of cycle 2) was < 10%, the Response ([2]; end of cycle 2) was “Maintenance of Partial Response” and the Serum histamine ([2]; end of cycle 2) was 800 to 1200 ng/dL. The serum tryptase ([2]; end of cycle 2) was > 200 µg/L, the direct bilirubin ([2]; end of cycle 2, from 1.1) was 0.7 mg/dL and the total bilirubin ([2]; end of cycle 2, from 2.1) was 1.3 mg/dL. For the same compound, the Response ([2]; end of cycle 3, dose increased to 75 mg po tid on day #91) was “Disease Progression” and the “proliferation decreased compared to cells treated with media only” value [3] was 90-95%.
